According to patent publication US9975852B2, “Quinoline sulfonyl derivatives and uses thereof” (Health Sciences North Research Institute, priority 2013, dated 2018):
Where two headings read alike, the source gives them in different places.

Legend:
[1] = tested on: MDA-MB468; test: SRB antiproliferative assay, MDA-MB468; type: cell-based, human
Procedure: (§1) Antiproliferative effects were determined by a sulforhodamine B (SRB) based protocol. For a typical screening experiment, 5,000-10,000 cells were inoculated into 100 μl medium per well of a 96-well microtiter plate as described previously. […] Some of the sample wells were fixed with 25 μl of 50% trichloroacetic acid (TCA) as a control of the cell population for each cell line at the time of drug addition (Tz). An aliquot of the frozen stock was thawed and diluted to the desired final maximum test-concentration with complete medium. Two to ten-fold serial dilutions were made to provide a total of seven drug concentrations (and a control [C]). Following addition of drugs, the culture plate was incubated for additional 48 h. Cells were fixed in situ by slowly adding 25 μl of ice-cold 50% (w/v) TCA (final concentration, 10% TCA), and were then incubated for 60 min at 4° C. The supernatant was discarded, and the plate was washed five times with tap water, followed by air-dry. 50 μl of SRB solution at 0.4% (w/v) in 1% acetic acid was added to each well, and the plate was incubated for >30 min at room temperature. Unbound SRB was removed by five washes with tap water, followed by air-drying. […] The relative growth rate (%) was calculated for each of the compound concentrations according to the following formula: (Ti−Tz)/(C−Tz)×100 In the formula, time zero (Tz), control growth (C), and OD for different concentration of tested compounds (Ti). The GI50 for each compound was obtained from a non-linear Sigmoidal dose-response (variable slope) curve which is fitted by GraphPad Prism™ v.4.03 software. Values were calculated for each of these parameters if the level of activity was reached. However, if the effect was not reached or was exceeded, the value for that parameter was expressed as greater or less than the maximum or minimum concentration tested. Flow Cytometry

[2] = tested on: MCF10A; test: SRB antiproliferative assay, MCF10A non-cancer breast cells; type: cell-based, human; conditions: 48 h
Procedure: as §1

[3] = tested on: MDA-MB231; test: SRB antiproliferative assay, MDA-MB231; type: cell-based, human
Procedure: as §1

[4] = tested on: 184B5; test: SRB antiproliferative assay, 184B5 non-cancer breast cells; type: cell-based, human; conditions: SRB, 48 h, read-out: GI50 184B5
Procedure: as §1

[5] = tested on: MCF7; test: SRB antiproliferative assay, MCF7; type: cell-based, human; conditions: SRB, 48 h, read-out: GI50 MCF7
Procedure: as §1

SMILES	GI50 ([1]; Homo sapiens, MDA-MB-468, 48 h)	GI50 ([2]; Homo sapiens, MCF-10A)	GI50 ([3]; Homo sapiens, MDA-MB-231, 48 h)	GI50 ([4]; Homo sapiens, 184B5)	GI50 ([5]; Homo sapiens, MCF7)	GI50 ([1]; 48 h)	GI50 [2]	GI50 ([3]; 48 h)	GI50 [4]	GI50 [5]	melting point
Cc1ccc(S(=O)(=O)N2CCN(c3ccnc4cc(Cl)ccc34)CC2)cc1 [VR-22 (38), 7-Chloro-4-(4-tosylpiperazin-1-yl)quinoline]	5.77 ± 0.41 µM	12.6 ± 0.66 µM	6.16 ± 0.51 µM	9.56 ± 0.53 µM	5.25 ± 0.45 µM	–	–	–	–	–	–
N.N.[Cl][Pt][Cl] [Cisplatin, reference compound]	–	–	–	–	–	31 ± 0.45 µM	51.5 ± 0.65 µM	23.65 ± 0.23 µM	25.5 ± 0.35 µM	25.8 ± 0.38 µM	–
O=S(=O)(c1ccc(-c2ccccc2)cc1)N1CCN(c2ccnc3cc(C(F)(F)F)ccc23)CC1 [Compound 9, 4-[4-(Biphenyl-4-sulfonyl)-piperazin-1-yl]-7-trifluoromethyl-quinoline]	20.5 ± 0.54 µM	–	27.2 ± 0.61 µM	19.1 ± 0.24 µM	14.8 ± 0.19 µM	–	–	–	–	–	148 to 150 °C
Cc1ccc(S(=O)(=O)NCCCNc2ccnc3cc(C(F)(F)F)ccc23)cc1 [Compound 24, 4-Methyl-N-[3-(7-trifluoromethyl-quinolin-4-ylamino)-propyl]-benzenesulfonamide]	6.21 ± 0.42 µM	–	6.36 ± 0.48 µM	12.2 ± 0.86 µM	6.9 ± 0.45 µM	–	–	–	–	–	77 to 79 °C
COC(=O)c1sccc1S(=O)(=O)N1CCN(c2ccnc3cc(Cl)ccc23)CC1 [Compound 2, Methyl 3-(4-(7-chloroquinolin-4-yl)piperazin-1-ylsulfonyl)thiophene-2-carboxylate]	30.2 ± 0.71 µM	–	40.4 ± 0.82 µM	15.2 ± 0.18 µM	22.37 ± 0.21 µM	–	–	–	–	–	117 to 119 °C
O=[N+]([O-])c1cccc(S(=O)(=O)N2CCN(c3ccnc4cc(C(F)(F)F)ccc34)CC2)c1 [Compound 6, 4-[4-(3-Nitro-benzenesulfonyl)-piperazin-1-yl]-7-trifluoromethyl-quinoline]	18.6 ± 0.57 µM	–	32.2 ± 0.68 µM	17.7 ± 0.21 µM	9.44 ± 0.25 µM	–	–	–	–	–	199 to 201 °C
O=[N+]([O-])c1cccc(S(=O)(=O)NCCCNc2ccnc3cc(C(F)(F)F)ccc23)c1 [Compound 26, 3-Nitro-N-[3-(7-trifluoromethyl-quinolin-4-ylamino)-propyl]-benzenesulfonamide]	9.09 ± 0.57 µM	–	15.8 ± 0.95 µM	8.01 ± 0.76 µM	8.25 ± 0.52 µM	–	–	–	–	–	98 to 100 °C
